Structures are written as SMILES.

This experiment addresses T1, DNA gyrase B (E. coli DNA gyrase, supercoiling) (Escherichia coli, UniProt P0AES6).
T1 construct: gene gyrB; with DNA gyrase subunit A (GyrA)
As to the kind of experiment: E. coli DNA gyrase supercoiling microplate assay kit (Inspiralis). The class given is biochemical.

Consider `CC(=NNc1nc(C)c(N=Nc2ccccc2)s1)c1cc2ccc(O)cc2oc1=O` [6a, 7-Hydroxy-3-(-1-{2-[4-methyl-5-(phenyldiazenyl)thiazol-2-yl]hydrazono}ethyl)-2H-chromen-2-one], for which the half-inhibitory concentration (IC50) is 56.6 µM.
On to `CC(=NNc1nc(C)c(N=Nc2ccc(F)cc2)s1)c1cc2ccc(O)cc2oc1=O` [6c, 3-(-1-{2-[5-((4-fluorophenyl)diazenyl)-4-methylthiazol-2-yl]hydrazono}ethyl)-7-hydroxy-2H-chromen-2-one], for which the IC50 was 93.4 µM.

Source of the values: paper PMC12447640, “Design, synthesis, and biological assessment of a novel series of coumarin-tethered thiazole derivatives as potential antibacterial agents” (Frontiers in Chemistry, 2025).
